Experimental data as given in article PMC10108886 (Cancer Research Communications, 2023).
Read-outs that look alike come from different tables or passages of the source.

How the values were obtained:
Test in all cases: cells
CWR22Rv1(shPARP7) = details: AR Status=H874Y and V7, growth inhibition with PARP7-inducing ligand, partial maximal effect
Description: (§1) VCaP cells encode wild-type (WT) AR and the V7 variant, and are used to model castrate resistance owing to amplification of AR. CWR22Rv1 is an informative model for therapy resistance mediated by AR splice variants that lack the ligand-binding domain. PC3-AR is a PC3 derivative engineered to express WT AR, which drives a gene expression profile that overlaps other prostate lines ([18]). PC3 cells are AR negative, resistant to therapies based on androgen deprivation, highly motile, and used to study prostate cancer metastasis. […] It is well established that androgen treatment is growth repressive in some prostate cancer lines. […] A G1 effect of androgen is, however, apparent in VCaP and PC3-AR cells (Supplementary Fig. S1A). […] FICZ is a naturally occurring tryptophan photoproduct, while 10-Chloro-7H-benzimidazo[2,1-a]benz[de]isoquinolin-7-one (10-CI-BBQ; here termed BBQ) is a synthetic molecule. FICZ and BBQ induce AHR target genes through a chaperone-mediated mechanism ([26]). […] In A, D–H, each condition reflects eight biological replicates, error bars show the SD, and ****, P < 0.0001; ***, P < 0.001; **, <0.01. […] The experiments were performed in triplicate, error bars show the SD, and ***, P < 0.001; **, <0.01, *, <0.05; ns, not significant. C, Phase contrast microscopy showing the morphology of cells treated with AHR agonist and RBN2397. […] A similar image for CWR22Rv1 cells with vehicle alone (−) is used in both Fig. 2C and 4C. […] F, RBN2397 dose–response curve of VCaP cells treated with BBQ.

PC3AR(shGFP) = details: PC3/AR, AR Status=WT, growth inhibition with PARP7-inducing ligand, partial maximal effect
Description: as §1

PC3 = details: Homo sapiens, AR Status=(-), growth inhibition with PARP7-inducing ligand, partial maximal effect
Description: as §1

PC3AR = details: PC3/AR, read-out: EC50 of RBN2397 (nM), Ligand* (Conc.)=R1881 (0.2 nM); AR Status=WT; growth inhibition with PARP7-inducing ligand; partial maximal effect
Description: as §1

CWR22Rv1(shGFP) = details: AR Status=H874Y and V7, growth inhibition with PARP7-inducing ligand, partial maximal effect
Description: as §1

DU145 = details: Homo sapiens, DU-145, read-out: EC50 of RBN2397 (nM), Ligand* (Conc.)=BBQ (10 nM); AR Status=(-); growth inhibition with PARP7-inducing ligand; partial maximal effect
Description: as §1

VCaP = details: Homo sapiens, VCaP, AR Status=WT and V7, growth inhibition with PARP7-inducing ligand, partial maximal effect
Description: as §1

PC3AR(shParp7) = details: PC3/AR, AR Status=WT, growth inhibition with PARP7-inducing ligand, partial maximal effect
Description: as §1

[1] = CWR22Rv1, read-out: EC50 of RBN2397 (nM), Ligand* (Conc.)=BBQ (10 nM)
[2] = CWR22Rv1, read-out: EC50 of RBN2397 (nM), Ligand* (Conc.)=R1881 (2 nM)
[3] = read-out: EC50 of RBN2397 (nM), Ligand* (Conc.)=BBQ (10 nM)
[4] = read-out: EC50 of RBN2397 (nM), Ligand* (Conc.)=R1881 (0.2 nM)

- EC50 (PC3AR(shGFP); [3]): 8.4 nM
- EC50 (PC3AR(shGFP); [4]): 3.4 nM
- EC50 (PC3; PC-3, read-out: EC50 of RBN2397 (nM), Ligand* (Conc.)=BBQ (10 nM)): 10 nM
- EC50 (PC3; PC-3, read-out: EC50 of RBN2397 (nM), Ligand* (Conc.)=R1881 (0.2 nM)): 9.4 nM
- EC50 (PC3AR): 2.4 nM
- EC50 (DU145): 5.2 nM
- EC50 (VCaP; read-out: EC50 of RBN2397 (nM), Ligand* (Conc.)=BBQ (100 nM)): 34.2 nM
- EC50 (VCaP; read-out: EC50 of RBN2397 (nM), Ligand* (Conc.)=R1881 (2 nM)): 3.4 nM
- EC50 (PC3AR(shParp7); [3]): 5.6 nM
- EC50 (PC3AR(shParp7); [4]): 5.7 nM
SMILES: C[C@@H](COCCC(=O)N1CCN(c2ncc(C(F)(F)F)cn2)CC1)Nc1cn[nH]c(=O)c1C(F)(F)F [RBN2397]
- EC50 (CWR22Rv1(shPARP7); [1]): 1.7 nM
- EC50 (CWR22Rv1(shPARP7); [2]): 39.6 nM
- EC50 (CWR22Rv1(shGFP); [1]): 0.6 nM
- EC50 (CWR22Rv1(shGFP); [2]): 4.8 nM
